{"source": "ChEMBL document CHEMBL1146438", "about": "“Structure and anti-acetylcholinesterase activity of 4 alpha-(hydroxymethyl)-4 alpha-demethylterritrem B” (J Nat Prod, 1997)", "data": [{"target": "Acetylcholinesterase (Electrophorus electricus, UniProt O42275)", "sequence (O42275 whole entry)": "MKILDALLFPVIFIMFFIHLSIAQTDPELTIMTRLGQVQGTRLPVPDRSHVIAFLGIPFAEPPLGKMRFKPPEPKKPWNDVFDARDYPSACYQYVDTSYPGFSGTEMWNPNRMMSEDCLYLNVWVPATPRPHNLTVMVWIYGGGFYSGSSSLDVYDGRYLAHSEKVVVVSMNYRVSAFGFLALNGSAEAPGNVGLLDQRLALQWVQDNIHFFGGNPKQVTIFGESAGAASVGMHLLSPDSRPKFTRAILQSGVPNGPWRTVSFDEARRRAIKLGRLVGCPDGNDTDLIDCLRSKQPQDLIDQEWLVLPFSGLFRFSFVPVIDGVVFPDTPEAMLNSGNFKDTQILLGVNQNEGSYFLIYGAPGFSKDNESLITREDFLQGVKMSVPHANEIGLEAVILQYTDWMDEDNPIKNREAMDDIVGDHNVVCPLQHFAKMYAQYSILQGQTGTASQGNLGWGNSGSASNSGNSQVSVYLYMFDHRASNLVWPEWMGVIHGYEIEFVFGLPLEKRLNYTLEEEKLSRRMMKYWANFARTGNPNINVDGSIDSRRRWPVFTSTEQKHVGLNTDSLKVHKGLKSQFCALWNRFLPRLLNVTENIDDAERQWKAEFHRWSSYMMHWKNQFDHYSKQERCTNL", "test": "Inhibition of electric eel AChE by Ellman's method", "units": {"IC50": "nM"}, "values": [{"smiles": "C=CC[N+](C)(C)c1ccc(CCC(=O)CCc2ccc([N+](C)(C)CC=C)cc2)cc1", "IC50": 10}, {"smiles": "COc1cc(-c2cc3c(c(=O)o2)C[C@]2(O)[C@@]4(C)C(=O)C=C[C@](C)(CO)[C@]4(O)CC[C@@]2(C)O3)cc(OC)c1OC", "IC50": 790}, {"smiles": "COc1cc(-c2cc3c(c(=O)o2)C[C@]2(O)[C@@]4(C)C(=O)C=C[C@@](C)(CO)[C@]4(O)CC[C@@]2(C)O3)cc(OC)c1OC", "note": "[4ALPHA-(HYDROXYMETHYL)-4ALPHA-DEMETHYLTERRITREM B]", "IC50": 0.423}]}]}
